{"source": "patent US11739051B2", "about": "(ALEXION PHARMA INTERNATIONAL OPERATIONS UNLIMITED COMPANY, priority 2018, dated 2023)", "key": {"[1]": {"assay": "Stability of crystalline particles after forced degradation at 40° C. and 75% relative humidity (HPLC impurities)", "type": "physicochemical", "protocol": "Stability analysis was performed on crystalline particles after forced degradation at 40° C. and 75% relative humidity over 3 days."}, "[2]": {"assay": "Particle size distribution (PSD) by LALLS", "type": "physicochemical", "conditions": "for Dx (10)/μm: 10th percentile of particle size, paraffin oil dispersion; for Dx (50)/μm: 50th percentile of particle size; for Dx (90)/μm: 90th percentile of particle size; for >100 μm (%): percentage of particles greater than 100 μm; for <2 μm (%): percentage of particles less than 2 μm", "description": "As used herein, the term “Dx(10)/μm” refers to the 10th percentile of particle size (D10) measured in micrometers (μm). As used herein, the terms “Dx(50)/μm” or “median particle size” refer to the 50th percentile particle size (D50). As used herein, the term “Dx(90)/μm” refers to the 90th percentile of particle size (D90).\nAs used herein, the term “<2 μm (%)” refers to the percentage (%) of particles that are less than 2 μm. As used herein, the term “>100 μm (%)” refers to the percentage (%) of particles that are greater than 100 μm. As used herein, the percentage of particles refers to the percentage based on the population, or number, of particles.\nThe sample dispersion medium was paraffin oil. […] This was repeated until a stable reading was obtained.\nThe PSD measurements were done using the following settings: background measurement time, 20 seconds(s); sample measurement time, 20 s; dispersant refractive index, 1.45; particle refractive index, N/A (Fraunhofer), absorption, N/A (Fraunhofer); stirrer speed, 2500 rpm; analysis model: general purpose."}, "[3]": {"assay": "Specific surface area (SSA) by BET", "type": "physicochemical", "conditions": "N2 adsorption", "protocol": "As used herein, the ten “SSA (m^2/g)” refers to specific surface area (SSA) measured in square meters (m^2) per gram (g). SSA was measured by BET according to the method described in Example 4.\nSpecific Surface Area (SSA) was analyzed by BET on a surface area analyzer (Gemini 2375™ from Micromeritics Instrument Corp.). […] Each sample was filled into a glass tube and “degassed” at 30° C. for 1 h under continuous N2 (g) flow in order to remove all loosely bound molecules on the external surface and from potential channels in the material. Simultaneously, the saturation pressure for the liquid nitrogen used was determined. After weighing the degassed samples, the degassed samples were inserted into the measuring position at −196° C. (boiling point for liquid nitrogen), evacuated and then exposed to a range of partial pressures basically covering the whole range from almost zero to close to 1 under adsorption mode. The lower pressures were used for SSA determination. Higher pressures were used for potential micro pore determination. In order to ascribe the right amount of nitrogen to the substances, the free volume in the tubes was measured with helium gas prior to nitrogen adsorption. The appropriate thickness values for the adsorbed layer (above the point where no absorption took place in micro pores anymore) was determined from a t-plot and subsequently used to correct the calculation by separating the adsorbed nitrogen molecules into either absorbed into potential pore like structures (the “micro pore volume”) or adsorbed onto actual external surface."}, "[4]": {"assay": "Crystallinity by X-ray powder diffraction (XRPD)", "type": "physicochemical", "protocol": "Crystallinity was analyzed by X-ray powder diffraction (XRPD) using a Cu-anode (45 kV/40 mA), a Kα-1 monochromator and silicon-based position-sensitive 1D detector (Malvern Panalytical, X'Celerator™). The 2-theta range was 2-35° using a scan speed of 0.02°/s and a step size of 0.017°. Slow spinning sample holders were used. […] Each sample was smeared out using a Teflon bar, producing a flat powdered surface on zero background wafers of silicon (Si). The measurements were performed using a programmable incident divergence slit.\nThe crystallinity was evaluated using Panalytical HighScore Plus™ software (The HighScore suite; T. Degen, M. Sadki, E. Bron, U. König, G. Nénert; Powder Diffraction, Volume 29, Supplement S2, December 2014, pp S13-S18). This method is based on the following steps: 1) Calculation of the net area of the signals from the crystalline part of the sample. This area is defined as “AREAcryst.” 2) Calculation of the net total area, that is, area from the amorphous “humps” plus the net peak area from step 1. This area is defined as “AREAtotal.” In the calculation of above areas, an automatic correction of the background is made by using data collected for an empty sample holder. 3) The percent crystallinity of the sample is calculated as: (AREAcryst/AREAtotal)*100.\nXRPD crystallinity results for each batch are reported Table 1."}, "[5]": {"system": "WD patients", "conditions": "once daily dosing in WD patients; cited from earlier work"}, "[6]": {"conditions": "Day 3, 40° C. / 75% RH, listed as B-3"}, "[7]": {"conditions": "Day 3, 40° C. / 75% RH, listed as B-2"}, "[8]": {"conditions": "Day 3, 40° C. / 75% RH, listed as A-2"}, "[9]": {"conditions": "Day 3, 40° C. / 75% RH, listed as B-4"}}}
{"substance": "bis-choline tetrathiomolybdate [Batch B-3]", "values": [{"measurement": "Mo2S6O2 dimer (area %)", "setting": "[1]; Day 1, 40° C. / 75% RH, listed as B-3", "result": "<0.05", "unit": "area %"}, {"measurement": "Mo2S6O2 dimer (area %)", "setting": "[1]; Day 2, 40° C. / 75% RH, listed as B-3", "result": 0.07, "unit": "area %"}, {"measurement": "Mo2S6O2 dimer (area %)", "setting": "[1]; [6]", "result": 0.11, "unit": "area %"}, {"measurement": "TM2 (area %)", "setting": "[1]; [6]", "result": 0.10, "unit": "area %"}, {"measurement": "TM3 (area %)", "setting": "[1]; [6]", "result": 0.43, "unit": "area %"}, {"measurement": "Total impurities (area %)", "setting": "[1]; [6]", "result": 0.68, "unit": "area %"}, {"measurement": "TM2 (area %)", "setting": "[1]; Initial, listed as B-3", "result": 0.01, "unit": "area %"}, {"measurement": "TM3 (area %)", "setting": "[1]; Initial, listed as B-3", "result": 0.42, "unit": "area %"}, {"measurement": "Total impurities (area %)", "setting": "[1]; Initial, listed as B-3", "result": 0.44, "unit": "area %"}, {"measurement": "Dx (10)/μm", "setting": "[2]; listed as B-3", "result": 10.5, "unit": "μm"}, {"measurement": "Dx (50)/μm", "setting": "[2]; listed as B-3", "result": 30.0, "unit": "μm"}, {"measurement": "Dx (90)/μm", "setting": "[2]; listed as B-3", "result": 54.9, "unit": "μm"}, {"measurement": ">100 μm (%)", "setting": "[2]; listed as B-3", "result": 0.0, "unit": "%"}, {"measurement": "<2 μm (%)", "setting": "[2]; listed as B-3", "result": 2.6, "unit": "%"}, {"measurement": "SSA (m^2/g)", "setting": "[3]; listed as B-3", "result": 0.38, "unit": "m^2/g"}, {"measurement": "Estimated Crystallinity (%)", "setting": "[4]; AREAcryst/AREAtotal*100, listed as B-3", "result": 95, "unit": "%"}]}
{"substance": "bis-choline tetrathiomolybdate [Batch B-2]", "values": [{"measurement": "Mo2S6O2 dimer (area %)", "setting": "[1]; Day 1, 40° C. / 75% RH, listed as B-2", "result": 0.07, "unit": "area %"}, {"measurement": "Mo2S6O2 dimer (area %)", "setting": "[1]; Day 2, 40° C. / 75% RH, listed as B-2", "result": 0.13, "unit": "area %"}, {"measurement": "Mo2S6O2 dimer (area %)", "setting": "[1]; [7]", "result": 0.19, "unit": "area %"}, {"measurement": "TM2 (area %)", "setting": "[1]; [7]", "result": 0.13, "unit": "area %"}, {"measurement": "TM3 (area %)", "setting": "[1]; [7]", "result": 0.54, "unit": "area %"}, {"measurement": "Total impurities (area %)", "setting": "[1]; [7]", "result": 0.97, "unit": "area %"}, {"measurement": "TM2 (area %)", "setting": "[1]; Initial, listed as B-2", "result": 0.01, "unit": "area %"}, {"measurement": "TM3 (area %)", "setting": "[1]; Initial, listed as B-2", "result": 0.52, "unit": "area %"}, {"measurement": "Total impurities (area %)", "setting": "[1]; Initial, listed as B-2", "result": 0.56, "unit": "area %"}, {"measurement": "Dx (10)/μm", "setting": "[2]; listed as B-2", "result": 5.4, "unit": "μm"}, {"measurement": "Dx (50)/μm", "setting": "[2]; listed as B-2", "result": 20.5, "unit": "μm"}, {"measurement": "Dx (90)/μm", "setting": "[2]; listed as B-2", "result": 59.7, "unit": "μm"}, {"measurement": ">100 μm (%)", "setting": "[2]; listed as B-2", "result": 0.1, "unit": "%"}, {"measurement": "<2 μm (%)", "setting": "[2]; listed as B-2", "result": 4.3, "unit": "%"}, {"measurement": "SSA (m^2/g)", "setting": "[3]; listed as B-2", "result": 0.65, "unit": "m^2/g"}, {"measurement": "Estimated Crystallinity (%)", "setting": "[4]; AREAcryst/AREAtotal*100, listed as B-2", "result": 93, "unit": "%"}]}
{"substance": "bis-choline tetrathiomolybdate [Batch A-2]", "values": [{"measurement": "Mo2S6O2 dimer (area %)", "setting": "[1]; [8]", "result": 0.09, "unit": "area %"}, {"measurement": "TM2 (area %)", "setting": "[1]; [8]", "result": 2.38, "unit": "area %"}, {"measurement": "TM3 (area %)", "setting": "[1]; [8]", "result": 2.78, "unit": "area %"}, {"measurement": "Total impurities (area %)", "setting": "[1]; [8]", "result": 5.54, "unit": "area %"}, {"measurement": "TM2 (area %)", "setting": "[1]; Initial, listed as A-2", "result": 0.29, "unit": "area %"}, {"measurement": "TM3 (area %)", "setting": "[1]; Initial, listed as A-2", "result": 2.04, "unit": "area %"}, {"measurement": "Total impurities (area %)", "setting": "[1]; Initial, listed as A-2", "result": 2.34, "unit": "area %"}, {"measurement": "Dx (10)/μm", "setting": "[2]; listed as A-2", "result": 25.5, "unit": "μm"}, {"measurement": "Dx (50)/μm", "setting": "[2]; listed as A-2", "result": 86.6, "unit": "μm"}, {"measurement": "Dx (90)/μm", "setting": "[2]; listed as A-2", "result": 442.0, "unit": "μm"}, {"measurement": ">100 μm (%)", "setting": "[2]; listed as A-2", "result": 46.8, "unit": "%"}, {"measurement": "<2 μm (%)", "setting": "[2]; listed as A-2", "result": 0.0, "unit": "%"}, {"measurement": "SSA (m^2/g)", "setting": "[3]; listed as A-2", "result": 0.26, "unit": "m^2/g"}, {"measurement": "Estimated Crystallinity (%)", "setting": "[4]; AREAcryst/AREAtotal*100, listed as A-2", "result": 86, "unit": "%"}]}
{"substance": "Bis-choline tetrathiomolybdate [BC-TTM]", "values": [{"measurement": "Cu control and improvement of hepatic function", "setting": "[5]", "result": "demonstrated to provide Cu control and improvement of hepatic function"}]}
{"substance": "bis-choline tetrathiomolybdate [Batch B-4]", "values": [{"measurement": "Mo2S6O2 dimer (area %)", "setting": "[1]; Day 1, 40° C. / 75% RH, listed as B-4", "result": 0.06, "unit": "area %"}, {"measurement": "Mo2S6O2 dimer (area %)", "setting": "[1]; Day 2, 40° C. / 75% RH, listed as B-4", "result": 0.23, "unit": "area %"}, {"measurement": "Mo2S6O2 dimer (area %)", "setting": "[1]; [9]", "result": 0.38, "unit": "area %"}, {"measurement": "TM2 (area %)", "setting": "[1]; [9]", "result": 0.19, "unit": "area %"}, {"measurement": "TM3 (area %)", "setting": "[1]; [9]", "result": 0.23, "unit": "area %"}, {"measurement": "Total impurities (area %)", "setting": "[1]; [9]", "result": 1.01, "unit": "area %"}, {"measurement": "Mo2S6O2 dimer (area %)", "setting": "[1]; Initial", "result": "<0.05", "unit": "area %"}, {"measurement": "TM2 (area %)", "setting": "[1]; Initial, listed as B-4", "result": 0.01, "unit": "area %"}, {"measurement": "TM3 (area %)", "setting": "[1]; Initial, listed as B-4", "result": 0.14, "unit": "area %"}, {"measurement": "Total impurities (area %)", "setting": "[1]; Initial, listed as B-4", "result": 0.20, "unit": "area %"}, {"measurement": "Dx (10)/μm", "setting": "[2]; listed as B-4", "result": 3.6, "unit": "μm"}, {"measurement": "Dx (50)/μm", "setting": "[2]; listed as B-4", "result": 12.7, "unit": "μm"}, {"measurement": "Dx (90)/μm", "setting": "[2]; listed as B-4", "result": 47.6, "unit": "μm"}, {"measurement": ">100 μm (%)", "setting": "[2]; listed as B-4", "result": 0.0, "unit": "%"}, {"measurement": "<2 μm (%)", "setting": "[2]; listed as B-4", "result": 6.6, "unit": "%"}, {"measurement": "SSA (m^2/g)", "setting": "[3]; listed as B-4", "result": 1.16, "unit": "m^2/g"}, {"measurement": "Estimated Crystallinity (%)", "setting": "[4]; AREAcryst/AREAtotal*100, listed as B-4", "result": 93, "unit": "%"}]}
